Experimental findings from patent US9073856B2, “Phenyl methanesulfonamide derivatives useful as MGAT-2 inhibitors” (Eli Lilly and Company, priority 2012, dated 2015) are described below.

Where a name gives a salt, the structure may show the parent alone.

Assay [1] has as its target T1, human MGAT-2 (Homo sapiens, UniProt Q3SYC2). In words: MGAT-2 Cell Assay (Caco-2 cells stably transfected with human MGAT-2, HDG substrate, LC-MS). Particulars: HDG/DOPC. The assay is classed as cell-based. The method, then:
The inhibitory activity of compounds against human MGAT-2 in a cell environment is evaluated in this assay. Caco-2 is a human colon carcinoma cell line and is often used as a model for intestinal epithelial cells. […] A MAG analogue, 2-O-Hexadecylglycerol (HDG), is utilized to detect cellular MGAT-2 activity, because HDG is not be hydrolyzed and the resulting product is readily monitored by mass spectrometry. The substrate is delivered to cells using phospholipid vesicles.
Seed the Caco2 cells onto 100 mm dishes to be 80% confluent after 24 hours in complete media (3/1 DMEM: F12+10% FBS+20 mM HEPES+gentamicin). Transfect the cells with hMGAT-2 plasmid (MGAT-2-pCDNA3.1-Hygro) using Lipofectamine 2000 (Invitrogen). After a 6 hour exposure to the transfection mixture, wash the cells 3× in PBS and then add media. Incubate the cells for an additional 18 hours incubation, trypsinize the cells and serially dilute them into 100 mm dishes. Added complete media+400 μg/ml hygromycin and incubate until clones appear. Isolate and transfer the clones into 24 well dishes and grow to confluency. Prepare the RNAs from these clones using a Qiagen RNAeasy kit. Perform Taqman analysis using an ABI inventoried assay (HS00228262) on a 7900 Sequence Detection System (ABI). Analyze the lysates from these clones western blot analysis using a goat polyclonal antibody (Santa Cruz, SC-32392 to confirm human MGAT-2 expression of a 38 Kdal protein corresponding to MGAT-2.
Mix 2-O-hexadecylglycerol (“HDG”, Biosynth Chemistry & Biology, # H-1806, 562.7 μl of 20 mg/ml) and DOPC (14.3 ml of 20 mg/ml) in a glass tube; dry first under N2 gas; and then under vacuum for additional 30 minutes. Add 20 ml of buffer (150 mM Tris-Cl pH 7.4, 250 mM Sucrose, 1 mM EDTA) to the dried HDG/DOPC mixture while sonicating until the solution becomes clear. Plate the Caco2 cells into a poly-D-lysine coated 96-well plate (the “Cell Plate”) at 37° C., 5% CO2 overnight. Remove the growth media and pretreat the cells with the test compound in DMEMF12 (3:1) media (GIBCO 93-0152DK) containing 2% BSA (Sigma) for 30 minutes. Treat the cells with one test compound in 2% BSA DMEMF12 (3:1) media containing 40 μM of oleic acid and 800 μM of 8.9% HDG/DOPC for 4 hours. Trypsinize the cells with 50 μl of trypsin and add 50 μl of PBS. Immediately freeze the cells on dry ice and store at −20° C. for LC-MS analysis. Extract the cells with chloroform/methanol as follows transfer the cells to a 2 ml Plate; wash the Cell Plate with 200 μL methanol and then transfer the methanol wash to the 2 ml Plate; wash the Cell Plate again with 200 μL PBS and transfer the PBS wash to the 2 ml Plate. Add chloroform (400 μL) with internal standard (19.52 ng/mL) DAG (15:0,15:0 (Sigma)), D5-TAG (39.03 ng/mL) CDN (16,16,16) to the 2 mL Plate. […]

Assay [2] deals with T1, human MGAT-2. In words: MGAT-2 Inhibitory Assay (14C-oleoyl-CoA, Microscint E extraction, SF9 cell lysate). The assay is classed as biochemical. Set-up: made in house; host or cells: Insect SF9 cells (supernatant of homogenate, unpurified). The note with it: human MGAT-2 expressed in SF9 cells, 90 minutes, room temperature; read-out: IC50 in MGAT-2 in vitro assay. The method, then:
The in vitro inhibitory activity of compounds against human MGAT-2 is evaluated in this assay. MGAT-2 transfers an oleoyl group to monooleoyl-glycerol (“MAG”) from oleoyl-CoA to form dioleoyl-glycerol (“DAG”) in the intestinal triglyceride resynthesis pathway. The assay takes advantage of Microscint E extraction, which extracts hydrophobic molecules selectively over hydrophilic ones to separate the ^14C-oleoyl-CoA from ^14C-DAG.
Insect SF9 cells express human MGAT-2. Prepare the cell lysate in 20 mM of NaCl with protease inhibitor (Roche Cat#11873580001). Homogenize the SF9 cells expressing human MGAT-2 at 15,000 rpm for 20×2 seconds (PT-3100 Polytrone). Centrifuge the homogenate at 1000 g for 10 minutes at 4° C. Collect the supernatant into a separate tube for protein quantification and activity testing. Purify the glycerol monooleate substrate (Spectrum Chemical, CAS#25496-72-4) chromatographically. Prepare the monoacylglyerol (MAG) substrate in phospholipid vescicles (dioleoyl phosphatidylcholine “DOPC”). Prepare the MAG/DOPC vesicles at 20 mM concentration of total lipids (MAG and DOPC). Prepare different molar ratios of MAG to total lipids for either compound screening (8.9%) or compound kinetic studies (2.6-40%). Mix the appropriate amount of purified MAG and DOPC (Avanti Polar Lipids #850375C) in a glass tube under N2 gas and then dry under vacuum for 30 minutes. […]

Another assay deals with TAG absorption. In words: Dog Oil Bolus Model (plasma TAG after olive oil bolus). The note with it: male beagles, olive oil 5 ml/kg. The assay is classed as in vivo. The method, then:
Inhibiting MGAT-2 found in the small intestine may be useful for treating hypertriglyceridemia caused by excessive fat intake. To assess the ability of the exemplified compounds to inhibit TAG absorption, twenty one male beagles (n=7 per treatment group) are enrolled for each study each dog selected to have a body weight between 9-13 kg. House the dogs in cages with a standard light cycle (12 hours light and 12 hours dark); at room temperature: 72±8° F.; and at 30%-70% relative humidity. Fast the dogs for 16 hours prior to the start of the study, then dose the fasted dogs with vehicle (1% HEC, 0.25%, Tween 80, Antifoam) or one of the test compounds. Bleed the dogs one hour after dosing, (0.5 ml from the jugular vein) for a time 0 sample. Dose the dogs with olive oil (Sigma Catalog#: O-1514, 5 ml/kg) immediately after collection of the time 0 sample. Collect samples into an EDTA tube on ice at 1.5, 2, 3, 5, 7, and 9 hrs post compound/vehicle dosing. […]
The analyte is the [M+NH4]+ ion of TAG 18:1 18:1 18:1, which has a mass of 902.8 m/z; the internal standard is D5 TAG 16:0 16:0 16:0, which has a mass of 829.8 m/z. […] The percent inhibition of plasma triglyceride is calculated as follows: the (oil bolus group mean of net TAG AUC−oil bolus group mean of net TAG AUC with compound treatment/oil bolus group mean of net TAG AUC)*100. […]

Setting [3] is: Caco-2 cells expressing human MGAT-2, 4 hours, read-out: Basal Triglyceride Caco 2 Relative IC50.

T1 sequence (Q3SYC2 whole entry): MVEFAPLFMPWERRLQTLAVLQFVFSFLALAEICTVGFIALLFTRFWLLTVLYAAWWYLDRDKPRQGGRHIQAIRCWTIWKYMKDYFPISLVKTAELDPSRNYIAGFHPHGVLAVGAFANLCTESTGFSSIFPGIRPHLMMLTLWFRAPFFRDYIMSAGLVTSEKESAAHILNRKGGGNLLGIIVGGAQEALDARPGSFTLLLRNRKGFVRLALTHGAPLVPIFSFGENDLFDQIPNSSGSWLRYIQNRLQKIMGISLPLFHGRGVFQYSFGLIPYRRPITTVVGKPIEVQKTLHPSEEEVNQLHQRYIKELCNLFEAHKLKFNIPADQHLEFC

On to `CC(C)(C)C1CCN(Cc2ccc([C@H](NS(C)(=O)=O)C(F)(F)F)cc2)CC1.Cl` [Example 1, N-[(1S)-1-[4-[(4-tert-Butylpiperidin-1-yl)methyl]phenyl]-2,2,2-trifluoro-ethyl]methanesulfonamide hydrochloride], for which the 50% inhibitory concentration (IC50) (in general, the midpoint of a concentration-inhibition curve) is 58.2 nM on human MGAT-2 [1] (Basal Triglyceride Caco 2 Relative IC50, Caco-2 cells expressing human MGAT-2, 4 hours) and < 12 nM at human MGAT-2 [2]. In addition, the “inhibition of TAG absorption (percent inhibition of net plasma TAG AUC)” value in the assay on TAG absorption (dosed at 10 mg/kg) is reported as 69%. Moreover, in the assay on TAG absorption (dosed at 30 mg/kg), the “inhibition of TAG absorption” value is given as “completely inhibited”.

For the compound `CC(C)(C)C1CCN(Cc2ccc([C@H](NS(C)(=O)=O)C(F)(F)F)cc2)CC1` [Example 2, N-[(1S)-1-{4-[(4-tert-butylpiperidin-1-yl)methyl]phenyl}-2,2,2-trifluoroethyl]methanesulfonamide phosphoric acid], on human MGAT-2 [1] (setting [3]), the 50% inhibitory concentration (IC50) came to 102 nM.

As for `CS(=O)(=O)N[C@@H](c1ccc(CN2CCC(c3ccc(F)cc3)CC2)cc1)C(F)(F)F` [Example 4, N-[(1S)-2,2,2-trifluoro-1-(4-{[4-(4-fluorophenyl)piperidin-1-yl]methyl}phenyl)ethyl]methanesulfonamide hydrochloride], the 50% inhibitory concentration (IC50) at human MGAT-2 [1] (setting [3]) came to 17.7 nM.

With `C[C@@H](NS(C)(=O)=O)c1ccc(CN2CCC(c3ccc(F)cc3)CC2)cc1` [Example 5, N-[(1R)-1-(4-{[4-(4-fluorophenyl)piperidin-1-yl]methyl}phenyl)ethyl]methanesulfonamide hydrochloride], at human MGAT-2 [1] (setting [3]), the half-inhibitory concentration (IC50) was 64.2 nM.
